Laboratory results taken from patent publication US20220280525A1, “RAC INHIBITION AS A NOVEL THERAPEUTIC STRATEGY FOR EGFR/HER2 TARGETED THERAPY RESISTANT BREAST CANCER” (UNIVERSITY OF PUERTO RICO, priority 2021, published 2022).
Like-named read-outs stand apart in the source and are kept apart here.

Experiments:
[1] = tested on: SKBR3 gefitinib resistant (Gef.R) cells; assay type: cell-based, human
[2] = tested on: SKBR3 lapatinib resistant (Lap.R) cells; test: MTT cell viability assay, lapatinib resistant SKBR3 variant; conditions: for decrease in cell viability: Lap.R SKBR3
Rac [3] = test: Effective concentration of Rac inhibitors; conditions: relative to NSC23766
[4] = tested on: HER2+ and EGFR+breast cancer cells; test: Mammosphere forming efficiency with Rac inhibitors; assay type: cell-based
[5] = tested on: SKBR3 therapy sensitive cells; test: MTT cell viability assay, therapy sensitive SKBR3 cells; assay type: cell-based, human; conditions: 5 and 10 μM, 24 h
Source text: (§1) FIG. 6A-6F. […] N=3±SEM *=p≤0.05, **=p≤0.01****=p≤0.001.

[6] = tested on: SKBR3 therapy sensitive cells; test: Caspase-Glo 3/7 apoptosis assay, therapy sensitive SKBR3 cells; assay type: cell-based, human; conditions: gefitinib, 48 h, vs vehicle
Protocol: (§2) FIG. 3A-3B. Apoptosis in therapy sensitive and resistant variants Apoptosis in therapy sensitive and resistant SKBR3 cell variants was detected by a Caspase-Glo 3/7 Assay. (A) Fold change in Caspase 3/7 activity in the therapy sensitive SKBR3 cell line following Gef or Lap treatment for 48 h compared to the vehicle controls. (B) Fold change in caspase 3/7 activity in the therapy resistant cell lines following treatment compared to non-treated cells. N=3±SEM, *=p≤0.05, ***=p≤0.005
(§3) Apoptosis was analyzed by the Caspase-Glo 3/7 activity assay (Promega) as described by the manufacturer. Briefly, cells were seeded in a 96 well plate and treated for 48h. Luminogenic caspase- 3/7 substrate containing a DEVD sequence was added and incubated for 1h. The luminescence was measured by a plate-reading luminometer.

[7] = tested on: SKBR3 therapy resistant variants; test: Mammosphere assay, therapy resistant SKBR3 variants; conditions: therapy resistant variants treated with gefitinib or lapatinib
[8] = tested on: SKBR3 therapy sensitive cells; test: Mammosphere assay, therapy sensitive SKBR3 cells; conditions: 0.5 μM gefitinib or 0.1 μM lapatinib
HER2 = HER2 (Homo sapiens, UniProt P04626)
[9] = tested on: MDA-MB-435 HER2+ cells resistant to lapatinib and trastuzumab; test: MTT cell viability assay, therapy resistant MDA-MB-435 variant; assay type: cell-based; conditions: 48 h
[10] = tested on: SKBR3 lapatinib resistant cells; test: Caspase-Glo 3/7 apoptosis assay, lapatinib resistant SKBR3 cells; assay type: cell-based, human
Protocol: as §2, §1, §3

[11] = tested on: Trastuzumab resistant SKBR3 cells; test: MTT cell viability assay, Trastuzumab resistant SKBR3 variant; assay type: cell-based; conditions: Homo sapiens; for cytotoxicity at 0.25 µM: SK-BR-3
[12] = tested on: Trastuzumab resistant SKBR3 variant; test: Caspase 3/7 apoptosis assay, Trastuzumab resistant SKBR3 variant; assay type: cell-based, human
[13] = tested on: gefitinib resistant SKBR3 variants; test: Cell phenotype of gefitinib resistant SKBR3 variants after Rac inhibitor; assay type: cell-based, human
Rac [14] = conditions: Tiam1/Rac inhibitor, most studies; cited from earlier work
[15] = MBQ-167 250 nM, Lapatinib resistant SKBR3

For CCn1c2ccccc2c2cc(Nc3ccnc(NCCCN4CCOCC4)n3)ccc21 [EHop-016], the cell viability [1] was “statistically significant decrease in cell viability”, the cell viability ([2]; lapatinib resistant SKBR3, 5 and 10 μM, 24 h) was “statistically significant decrease in cell viability” and the “effective concentration lower than NSC23766” value (Rac [3]) was 100 ×. For the same compound, the “mammosphere forming efficiency (MFE)” value [4] was “significantly reduce the MFE” and the cell viability [5] was “statistically significant decrease in cell viability”.

For COc1cc2ncnc(Nc3ccc(F)c(Cl)c3)c2cc1OCCCN1CCOCC1 [gefitinib], the “apoptosis (caspase 3/7 activity)” value [6] was “did not respond to gefitinib by apoptosis”, the mammosphere formation [7] was “no significant effect on mammosphere formation” and the mammosphere formation [8] was “significant reduction in mammosphere formation”.

In the case of CS(=O)(=O)CCNCc1ccc(-c2ccc3ncnc(Nc4ccc(OCc5cccc(F)c5)c(Cl)c4)c3c2)o1 [lapatinib], the “expression of total HER2” value (HER2; sensitive SKBR3 cells, 24 h, 0.5 μM gefitinib, 0.1 μM lapatinib) is reported as “significantly elevated”, the pHER2 levels (HER2; variants resistant to gefitinib 0.1 μM and lapatinib 0.1 μM, each with its own drug) is reported as “decreased pEGFR and pHER2 levels” and the “sensitivity of cell viability” value ([9]; single agent) is reported as “insensitive”. The cell viability ([2]; Lap.R cells, lapatinib alone) was “did not affect the viability”, the mammosphere formation [7] was “no significant effect on mammosphere formation” and the mammosphere formation [8] was “significant reduction in mammosphere formation”. The “caspase 3/7 activity” value ([10]; lapatinib resistant variant in response to lapatinib) was “significant decrease in caspase 3/7 activity”.

With CCn1c2ccccc2c2cc(-n3nncc3-c3ccccc3)ccc21 (racemic) [MBQ-167] the IC50 ([11]; SK-BR-3, read-out: IC50 (cell viability)) was 100 nM, the cytotoxicity at 0.25 µM ([11]; 96 and 120h, 250 nM MBQ-167, read-out: reduction of viability) was 90 to 100% and the cytotoxicity at 0.25 µM ([11]; 72 h, saturated at 250 nM, read-out: decrease in viability) was 50%. For the same compound, the “apoptosis (Caspase 3/7)” value ([12]; MBQ-167 in the presence of Trastuzumab) was “only partially overcame this resistance to apoptosis”, the “apoptosis (Caspase 3/7)” value ([12]; single agent, MBQ-167 at 250-750 nM) was “induced apoptosis” and the “decrease in cell viability” value ([9]; MBQ-167 alone) was ~40%. The cell viability ([9]; MBQ-167 in the presence of trastuzumab) was “inhibits MDA-MB-435 cell viability”, the “decrease in cell viability” value ([2]; 0.5 μM MBQ-167 alone) was ~40% and the “decrease in cell viability” value ([2]; 0.5 μM MBQ-167 in combination with 0.5 μM lapatinib) was ~40%. The reduction of viability [2, 15] was 30%, the cell phenotype [13] was “cell rounding, detachment from the substrate, and subsequent death” and the “effective concentration lower than NSC23766” value (Rac [3]) was 100 ×. The “mammosphere forming efficiency (MFE)” value [4] was “significantly reduce the MFE”, the “increase in caspase 3/7 activity” value ([10]; MBQ-167 0.25 μM alone, Lap.R SKBR3) was > 2 fold and the caspase activity ([10]; MBQ-167 0.25 μM in combination with lapatinib 0.5 μM, Lap.R SKBR3) was “even higher significant increase in caspase activity”. For the same compound, the apoptosis induction [10, 15] was 55%.

For CCN(CC)CCCC(C)Nc1nc(C)cc(Nc2ccc3nc(C)cc(N)c3c2)n1 (centres unmarked) [NSC23766], the active concentration (Rac [14]) is given as 50 to 100 µM.
